Test results: patent publication US12419963B2, “Diels-Alder conjugation methods” (priority 2020, dated 2025)
Square brackets hold non-standard residues; d marks the D form. Peptide text beside a SMILES is read from it. * marks the point of attachment. Dolaproine = CO[C@@H]([C@@H]1CCCN1)[C@@H](C)C(=O)O; Dil = CC[C@H](C)[C@H](NC)[C@@H](CC(=O)O)OC; X1 = C[C@@H](N*)[C@H](O)c1ccccc1; NMeV = CN[C@H](C(=O)O)C(C)C

Tests used:
SKBR3 (Her2+) cells = experiment: In vitro cytotoxicity assay (CCK8 cell viability), SKBR3; assay type: cell-based
Method: (§1) In this Example, the ability of various antibody-drug conjugates and naked payloads to kill antigen-expressing tumor cells in vitro was assessed.
(§2) SKBR3 (Her2+) cells were seeded in 96 well plates at 8000 cells per well in complete growth media and grown overnight. For cell viability curves, serially diluted conjugates or naked payloads were added to the cells at final concentrations ranging from 100 nM to 5 pM and incubated for 3 days. NCI H929 and NCI H1975 (Her2−) cells were run as negative controls using similar conditions. To measure viability, cells were incubated with CCK8 (Dojindo) for the final 2 hours and the absorbance at 450 nm (OD450) was determined on a Victor (Perkin Elmer). Background OD450 levels determined from digitonin (40 nM) treated cells were subtracted from all wells and viability was expressed as a percentage of the untreated controls. IC50 values were determined from a four-parameter logistic equation over a 10-point response curve (GraphPad Prism). […] The interchain disulfide conjugates had similar IC50 values as the transglutaminase site-specific Diels-Alder conjugates. […] IC50 values are corrected for payload equivalents and the results of other transglutaminase site-specific Diels-Alder conjugates' cell viability are shown in Table 5. […]

NCI H929 (Her2−) cells = experiment: In vitro cytotoxicity assay (CCK8 cell viability), NCI H929 negative control; assay type: cell-based
Method: as §1, §2

Compound: CC[C@H](C)[C@@H]([C@@H](CC(=O)N1CCC[C@H]1[C@H](OC)[C@@H](C)C(=O)N[C@H](C)[C@H](O)c1ccccc1)OC)N(C)C(=O)[C@@H](NC(=O)[C@@H](NC)C(C)C)C(C)C [MMAE, Monomethyl auristatin E] (H-[NMeV]V[Dil][Dolaproine]-X1)
- IC50 (SKBR3 (Her2+) cells; Homo sapiens, SK-BR-3, 72 h): 0.031 nM
- % Kill (SKBR3 (Her2+) cells; SK-BR-3 cells, 3 days incubation, CCK8): 97.3%
- IC50 (NCI H929 (Her2−) cells; Homo sapiens, NCI-H929, 72 h): 0.209 nM
- % Kill (NCI H929 (Her2−) cells; NCI H929 cells (HER2-), 3 days incubation, CCK8): 99.7%
